Experimental findings from PubChem BioAssay AID2305 (GlaxoSmithKline (GSK), 2010) are described below.

Where “and” joins values, the source holds several entries; their conditions need not be identical. Identical values can stand only once.

The subject of this experiment is P. falciparum 3D7 growth, pLDH absorbance. The experiment in a line: blood-stage malaria parasite growth potency – strain 3D7, dose response (AID 2305).
The IC50 is the concentration at which inhibition is half-maximal. Read a high IC50 as a need for much substance. As for `COc1cc(NC(=O)c2cccs2)c(OC)cc1NC(=O)Nc1cccc(Cl)c1`, the IC50 worked out at 1 µM.

Consider `CC1=C(C(=O)Nc2cc3cn[nH]c3cc2F)C(c2ccc(Cl)c(NS(C)(=O)=O)c2)CC(=O)N1` (stereo unspecified), for which the IC50 was determined as 0.48 µM. `COc1ccc(Nc2nc(NC3CCN(Cc4ccccc4)CC3)cc(-c3ccncc3)n2)cc1` showed an IC50 of 0.99 µM. For `CN1CCC(C(=O)N(Cc2ccc(-c3ccc(CNCCc4ccccc4)cn3)cc2)C2CCN(Cc3ccccc3)CC2)CC1` the value was 0.79 µM; for `O=C(NCCN1CCCCC1)c1ccc(CNC(=O)c2ccc(O)c(-c3ccc(Cl)c(Cl)c3)c2)cc1`, 0.9 µM.

As for `Cc1cccc2[nH]c(-c3cccc(-c4cccc(CNCCc5cccn5C)c4)c3)nc12`, the IC50 was determined as 0.73 µM. For `CC(Cc1ccc(OCc2ccccc2)cc1)NCC(O)c1cccc(Cl)c1` (stereo unspecified) the value was 0.55 µM; for `Cc1cnc(N2CCN(CC3CCN(C)CC3)CC2)nc1Oc1ccc(-n2ccnc2)cc1`, 0.72 µM; for `Cc1cc(CN2CC[C@H](NC(=O)c3ccc(Cl)c(Cl)c3)C2)ccc1OCCN1CCCC1`, 1.16 µM. For `N#Cc1ccc(CNCCCCCCNCc2ccc(C#N)c3ccccc23)c2ccccc12` the value was 0.61 µM; for `CNCCCNc1ccnc2cc(Cl)ccc12`, 0.06 µM; for `NC(=O)c1cccc(C(=O)Nc2cccc(-c3ccc(-c4nc5ccc(C(F)(F)F)cc5[nH]4)cc3)c2)c1`, 0.52 µM.

Consider `COc1ccc(-c2cnc3ccc(NCCCO)nn23)cc1OC`, for which the IC50 stood at 0.67 µM. For `CNc1nc(Nc2ccccc2C)nc2ccccc12` the value was 0.44 µM; for `CNC(=O)c1cncc(/C=C/c2ccccc2S(N)(=O)=O)c1`, 0.69 µM.

Take `Cc1c(C)c2c(c(C)c1O)CC[C@@](C)(C(=O)N1CCC(CN3CCC(c4c[nH]c5ccccc45)CC3)CC1)O2`: the IC50 came to 0.66 µM. For `CCc1ccc(CN(Cc2ccc(C)cc2)Cc2ccc(NC(C)=O)cc2)cc1` the value was 0.96 µM.

Compound `COc1ccccc1COc1c(C)nc(N)nc1N` returned an IC50 of 0.71 µM. For `COc1ccc2nccc([C@@H](O)CN3CCC(NCc4cc5ccccc5[nH]4)CC3)c2c1` the value was 1.1 µM. Next, `CCOC(=O)C1CCN(CCOc2cc(NC(=O)/C=C/c3ccccc3Cl)ccc2Br)CC1`: 0.99 µM. Next, `CC(C)CN(Cc1c(O)ccc2[nH]c(-c3ccc(F)cc3F)nc12)CC(C)C`: 0.8 µM; `CCOc1ccc(C2CCN(CCCCNC(=O)c3ccc(NC(=O)c4ccc(Cl)cc4)cc3)CC2)c(Cl)c1`: 0.73 µM; `Oc1ccc2nc(Nc3ccccc3)nc(NCCc3ccccc3)c2c1`: 0.15 µM. `Cc1ccc(Nc2ccnc3cc(-c4nccs4)ccc23)cc1C(O)c1ccccc1` (stereo unspecified) yielded an IC50 of 0.74 µM. For `CCOc1ncccc1CN1CCC(N2CCc3cc(NC(=O)c4ccco4)ccc32)C1` (stereo unspecified) the value was 0.76 µM; for `COC(C(=O)OCCC1CCCN1C)(c1ccccc1)c1ccccc1` (stereo unspecified), 0.97 µM; for `O=C(Nc1cccc(C(F)(F)F)c1)c1ccc(S(=O)(=O)NCC2CCN(CC3CCCCC3)CC2)cc1`, 0.32 µM. Next, `CN1Cc2ccc(NS(=O)(=O)c3ccc(-c4ccoc4)cc3)cc2C1`: 0.16 µM. Next, `Cc1cc(OCCCN2CCCCC2C)ccc1NC(=O)COc1ccc(Cl)cc1C(=O)c1cc(Cl)cc(C#N)c1` (stereo unspecified): 0.98 µM; `Cc1cccc(Cl)c1S(=O)(=O)Nc1cccc(CCN2CCC(N3CCCCC3)CC2)c1`: 1.11 µM. Take `O=C(CCc1cccc(O)c1)NCC(NCCCNc1cc(=O)c2ccccc2[nH]1)c1cc(Br)cc(Br)c1` (stereo unspecified): the IC50 amounted to 1.17 µM. For `COc1ccccc1/C=C/C(=O)NCCC1CCN(CCCCCNC(=O)/C=C/c2ccc(Cl)c(Cl)c2)CC1` the value was 0.81 µM; for `CC(C)N1CCN(C(CN2CCN(CCCOc3ccccc3-c3ccccc3)CC2)c2ccc(F)cc2)CC1` (stereo unspecified), 0.79 µM. Next, `O=S(=O)(NCCN1CCCC1)c1cccc(-c2ccc(CNC3Cc4ccccc4C3)cc2)c1`: 0.66 µM; `Cc1cc(N2CCOCC2)nc(Nc2ccc(NC(=O)Nc3ccc(F)cc3)cc2)n1`: 0.49 µM. For `CCN1CCN(c2cc(C)c3cc(NC(=O)c4cc(OC)cc(OC)c4)ccc3n2)CC1` the value was 0.16 µM; for `CC[C@@H]([C@@H](Cc1cc2ccccc2s1)C(=O)N[C@@H](CCCCNC(=O)OCc1ccccc1)C(=O)Nc1ccccn1)N(O)C=O`, 0.23 µM. Compound `CCn1ccc2c3c(N)nc(N)nc3ccc21` yielded an IC50 of 0.31 µM.

With `C=CCOC(=O)O[C@@H]1[C@@H](OC(=O)OCC=C)[C@@H](OC)O[C@H](COC(c2ccccc2)(c2ccccc2)c2ccccc2)[C@H]1OC(=O)OCC=C`, the IC50 came out at 0.89 µM.

`COc1cc(CNC(=S)NN=C(C)c2ccccn2)cc(OC)c1OC` registered an IC50 of 0.4 µM. For `Cc1c(F)cc(C(=O)NC2CC2)cc1-c1ccc2c(cnn2S(=O)(=O)c2ccc(Cl)s2)c1` the value was 0.39 µM; for `CC(CCc1ccccc1)NCC(O)c1ccc2c(c1)S(=O)(=O)c1ccccc1N2` (stereo unspecified), 1.22 µM; for `O=C(NCCc1ccccc1)N(Cc1cccc(-c2ccc(CNC3CCCC3)cc2)c1)C1CCN(Cc2ccccc2)CC1`, 0.4 µM. Next, `CC(C)CNCc1cccc(-c2ccccc2CN(C(=O)NCCc2ccccc2)C2CCN(Cc3ccccc3)CC2)c1`: 1.17 µM. `CCC(=O)c1ccc(-c2ccc(=O)n(CC(=O)N(CCN(CC)CC)Cc3ccc(-c4ccc(C(F)(F)F)cc4)cc3)n2)cc1` gave a 50% inhibitory concentration (IC50) of 0.72 µM. `Cc1cccc(CNc2ncc(C)c(NCCC(=O)Nc3ccccc3)n2)c1` showed an IC50 of 1.15 µM. Next, `CCCC(C)NC(=O)/C=C/c1ccccc1-c1cccc(OC)c1` (stereo unspecified): 1.25 µM; `O[C@@H](c1ccccc1)[C@@H]1CN(Cc2ccccc2)CC[C@@]1(O)c1ccccc1`: 0.85 µM. Next, `O=C(Nc1cccc(CN2CCCN(Cc3ccsc3)CC2)c1)c1ccc(Cl)c(Cl)c1`: 0.88 µM; `O=C(O)c1ccc2nc(-c3ccccn3)c(-c3ccccn3)nc2c1`: 0.22 µM; `CN(C)CCOc1cc(NC(=O)Nc2ccc(-c3ccncc3)c(Cl)c2)ccc1I`: 0.14 µM.

On to `COc1ccc2nccc([C@@H](O)CN3CCC(NCC4COc5ccccc5O4)CC3)c2c1` (stereo partly specified), for which the IC50 was 0.25 µM. Next, `CC(=O)c1c[nH]c2ccc(/C=C/C(=O)NC3CCC(CCN4CCc5ccc(C#N)cc5CC4)CC3)cc12` (stereo unspecified): 0.5 µM. For `O=S(=O)(NCCN1CCCC1)c1ccc(-c2ccc(CNC3Cc4ccccc4C3)cc2)cc1` the value was 0.66 µM. Next, `Cc1cc(Nc2ccc(C)c(Cl)c2)n2nc(C(F)(F)F)nc2n1`: 0.02 µM; `C[C@@H]1CN(c2ccc3occ(C(=O)Nc4ccc(-c5ccncc5)c(Cl)c4)c3c2)C[C@H](C)N1C`: 0.85 µM; `O=C(NC(Nc1ccc([N+](=O)[O-])cc1)C(Cl)(Cl)Cl)c1cccc(Cl)c1` (stereo unspecified): 0.86 µM.

On to `O=C1C[C@@H]([S@@](=O)Cc2nccs2)N1CCOCCCCCCc1ccc(Cl)cc1`, for which the IC50 stood at 1.02 µM. Next, `CC(C)(C)c1ccc(NC(=O)c2ccc(CN3CCCN(Cc4cccc(O)c4)CC3)cc2)cc1`: 0.67 µM; `Cn1nc(-c2ccc(S(=O)(=O)NC3CCC(CN4CCC(c5c[nH]c6ccccc56)CC4)CC3)s2)cc1C(F)(F)F` (stereo unspecified): 0.84 µM and 0.82 µM; `COc1ccc(NC(=O)[C@H](Cc2ccccc2)Nc2nc(NCCN3CCCC3)ncc2C)cc1`: 0.99 µM. In turn, `Cc1cccc(CN2CCC(C(=O)Nc3ccc(-c4nc5ccccc5[nH]4)cc3)CC2)n1` gave an IC50 of 0.92 µM. Consider `NC(N)=NC(=O)Nc1cc(Cl)c(Br)c(Cl)c1`, for which the IC50 amounted to 0.47 µM. For `Cc1cc(-c2ccc3c(c2)CC[C@@H](N[C@@H](C)c2ccccc2)C3)cnc1N` the value was 1.73 µM; for `O=C(C=Cc1cccc(Cl)c1Cl)NC1CCC(CN2CCC(c3c[nH]c4ccccc34)CC2)CC1` (stereo unspecified), 0.68 µM and 1.14 µM; for `COc1cc(NC(=O)/C=C/c2cc(F)cc(F)c2F)cc(OCCN2CCN(CCN3CCOCC3)CC2)c1`, 0.77 µM. For `COc1ccc(CNC(=O)NC2CCN(c3ccnc(Nc4ccc(OC)cc4)n3)C2)cc1` (stereo unspecified) the value was 1 µM; for `COc1ccc2nccc(NN=Cc3cccc(Cl)c3)c2c1`, 0.19 µM. Next, `O=C(C=Cc1ccc(-c2ccccc2)cc1)NC1CCC(CN2CCC(c3c[nH]c4ccccc34)CC2)CC1` (stereo unspecified): 0.81 µM and 0.74 µM.

As to `Cc1sc(CNCCCNc2cc(=O)c3ccccc3[nH]2)cc1Br`, the IC50 amounted to 0.76 µM. Next, `CNCCCN(C)C(=O)Oc1c(Br)c(C)nc(C)c1-c1ccc(Oc2ccc(OC(F)(F)F)cc2)cc1`: 0.39 µM; `CC[C@H]1CN2CC[C@@H]1C[C@H]2[C@H](O)c1cc(N2CCC(C)CC2)nc2ccc(OC)cc12`: 0.17 µM; `Cc1cccc2[nH]c(-c3ccc(-c4ccc(NC(=O)C5CCN(C)CC5)cc4)cc3)nc12`: 0.75 µM. For `Oc1ccc(-c2cc(COc3ccccc3C(F)(F)F)c(C3=CCNCC3)cc2COc2ccccc2C(F)(F)F)cc1` the value was 0.78 µM; for `Cc1onc(-c2ccccc2)c1-c1nc(NCc2ccccc2Cl)no1`, 0.7 µM.

In turn, `Cc1cc(C(F)(F)F)cc(-n2ncc(-c3ccc(C(=O)NCc4ccccc4N)cc3)c2N)n1` had an IC50 of 0.45 µM.

In the case of `O=C(/C=C/c1ccccc1Cl)Nc1ccc(Br)c(OCCN2CCC(O)(c3ccccc3)CC2)c1`, the IC50 was 0.48 µM. With `Cc1cc(N[C@@H](CC(C)C)C(=O)NCc2cccs2)nc(NCCc2ccccc2)n1`, the IC50 amounted to 1.19 µM. On to `Cc1ccccc1C1CCN(C2CCC(NC(=O)/C=C/c3c(F)ccc(F)c3F)CC2)CC1` (stereo unspecified), for which the IC50 was 1.26 µM. `COc1cc(Nc2nc(N)c3cc(OC)c(OC)cc3n2)cc(OC)c1`: the IC50 amounted to 0.27 µM. Next, `COc1cc2nc(N3CCC(NC(=O)c4cccc(N(C)C)c4)CC3)nc(N)c2cc1OC`: 0.61 µM; `Cc1ccc(CC(C)(C)NCC(O)c2cccc(C(F)(F)F)c2)cc1` (stereo unspecified): 0.84 µM. Next, `Cc1nc2ccc3ccc(CNc4ccc(C(=O)N[C@@H](CCC(=O)O)C(=O)O)cc4)cc3c2c(=O)[nH]1`: 0.18 µM; `O=C(NC1CCCCN(Cc2ccc3c(c2)OCCO3)C1)c1cc(-c2ccccc2F)cs1` (stereo unspecified): 1.05 µM. For `Cc1[nH]c(C)c(-c2ccc(-c3ccc(OC(F)(F)F)cc3)cc2)c(=O)c1Br`, the IC50 was 0.04 µM. In turn, `Cc1cc(N[C@@H](Cc2ccccc2)C(=O)NCCOc2ccccc2)nc(NCCc2ccccn2)n1` displayed an IC50 of 1.52 µM.
